Publication PMC12111648, “New Dimethoxyaryl-Sesquiterpene Derivatives with Cytotoxic Activity Against MCF-7 Breast Cancer Cells: From Synthesis to Topoisomerase I/II Inhibition and Cell Death Mechanism Studies” (International Journal of Molecular Sciences, 2025)

Target: T1, human topoisomerase I (Homo sapiens, UniProt P11387)
T1 construct: purchased Sigma-Aldrich (St. Louis, MO, USA)
T1 sequence (P11387 1-765): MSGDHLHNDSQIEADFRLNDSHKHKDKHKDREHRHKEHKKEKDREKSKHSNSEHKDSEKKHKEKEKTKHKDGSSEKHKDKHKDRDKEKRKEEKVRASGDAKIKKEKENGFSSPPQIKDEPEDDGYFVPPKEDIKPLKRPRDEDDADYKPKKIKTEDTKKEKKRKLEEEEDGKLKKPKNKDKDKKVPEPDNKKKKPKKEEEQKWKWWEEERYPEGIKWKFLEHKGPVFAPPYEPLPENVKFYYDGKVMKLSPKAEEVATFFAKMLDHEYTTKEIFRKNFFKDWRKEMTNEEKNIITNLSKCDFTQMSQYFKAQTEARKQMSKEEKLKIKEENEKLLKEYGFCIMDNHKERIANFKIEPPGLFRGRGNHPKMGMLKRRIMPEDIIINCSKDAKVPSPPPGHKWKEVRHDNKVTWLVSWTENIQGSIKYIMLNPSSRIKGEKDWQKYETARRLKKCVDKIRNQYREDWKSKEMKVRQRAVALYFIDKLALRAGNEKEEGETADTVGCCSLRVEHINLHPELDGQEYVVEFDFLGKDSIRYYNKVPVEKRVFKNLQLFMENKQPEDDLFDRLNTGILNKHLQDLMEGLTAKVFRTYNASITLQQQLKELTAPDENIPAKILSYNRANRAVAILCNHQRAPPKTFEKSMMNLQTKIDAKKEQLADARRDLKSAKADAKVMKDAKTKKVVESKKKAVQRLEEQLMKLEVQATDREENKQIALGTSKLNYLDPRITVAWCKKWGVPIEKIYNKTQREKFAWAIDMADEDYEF
Assay: TOP1 DNA relaxation assay
Format: biochemical
Conditions: 20 μM
Experimental: The ability to relax DNA conformations is a central function of topoisomerase enzymes. Several studies have associated some proapoptotic compounds with the ability to inhibit topoisomerase enzymes. The ability of the selected compounds to inhibit TOP1 or TOP2 activity was determined. In this experiment, daunorubicin was used as a positive control for TOP1/2 inhibition, as previously reported. […] It is important to note the potential for cardiotoxicity associated with some TOP2 inhibitors, which highlights the relevance of assessing compound 14c’s interaction with TOP2B. […] Future studies should include assays to evaluate the specific activity of 14c against both TOP2A and TOP2B to provide a more comprehensive safety profile, as isoform-selective TOP2 inhibitors may offer a therapeutic advantage by reducing adverse effects.
TOP1 activity was assayed by the relaxation of supercoiled DNA (pEGFP-N1) as the manufacturer’s instructions indicated. Briefly, human recombinant TOP1 and buffer assay were obtained from Sigma-Aldrich (St. Louis, MO, USA). […]
Figure 7 The effect of sesquiterpene aryl esters on TOP1- and TOP2-induced DNA relaxation was assessed. (A) The TOP1 inhibition assay evaluated the compounds (10c, 11c, 12c, 13c, and 14c) at a concentration of 20 μM in a DNA relaxation assay. […]

inhibition of TOP1-induced DNA relaxation: did not show significant inhibition
SMILES: COc1cc2c(cc1OC)[C@]1(C)CCC3C(C)(C)CCC[C@]3(C)C1=C2 (stereo partly drawn) [Compound 14c, (6aR,11bS)-8,9-Dimethoxy-4,4,6a,11b-tetramethyl-2,3,4,4a,5,6,6a,11b-octahydro-1H-benzo[a]fluorene]
